Assay results published in ChEMBL document CHEMBL3885861, “Open TG-GATES”.

Species: Rattus norvegicus
Test: Open TG-GATES - Regimen: Single
Type: toxicity, organism-based, Sprague-Dawley
Set-up: regimen Single, gender Male, age 6 weeks
Conditions: in vivo, po, route gavage; for APTT / Bas / Eos / Fbg / Hb / Ht / Lym / MCH / MCHC / MCV / Mono / Neu / PT / Plat / RBC / Ret / WBC: tissue Blood; for KIDNEY_L / KIDNEY_R / KIDNEY_TOTAL: tissue Kidney; for LIVER: tissue Liver; for A/G / ALP / ALT / AST / BUN / CRE / Ca / Cl / DBIL / GLC / IP / K / LDH / Na / PL / RALB / TBIL / TC / TG / TP / gamma-GTP: tissue Plasma
[1] = 300 mg/kg, 3 h, dose level Middle
[2] = 300 mg/kg, 6 h, dose level Middle
[3] = 300 mg/kg, 9 h, dose level Middle
[4] = 300 mg/kg, 24 h, dose level Middle
[5] = 1000 mg/kg, 3 h, dose level High
[6] = 1000 mg/kg, 6 h, dose level High
[7] = 1000 mg/kg, 9 h, dose level High
[8] = 1000 mg/kg, 24 h, dose level High

O=C(O)c1cc(/N=N/c2ccc(S(=O)(=O)Nc3ccccn3)cc2)ccc1O [SULFASALAZINE]
TERMINAL_BW [1]: 212.5 g
APTT [1]: 18.5 s
Bas [1]: 0%
Eos [1]: 1%
Fbg [1]: 215.2 mg/dL
Hb [1]: 13.1 g/dL
Ht [1]: 38.5%
Lym [1]: 79%
MCH [1]: 21.3 pg
MCHC [1]: 34%
MCV [1]: 62.6 fL
Mono [1]: 2.6%
Neu [1]: 16.2%
PT [1]: 12.9 s
Plat [1]: 115.5 x10_4/uL
RBC [1]: 615.6 x10_4/ul
Ret [1]: 6.7%
WBC [1]: 93.5 x10_2/uL
KIDNEY_L [1]: 1 g
KIDNEY_R [1]: 0.9 g
KIDNEY_TOTAL [1]: 1.9 g
LIVER [1]: 9.7 g
A/G [1]: 1.6
ALP [1]: 897.6 IU/L
ALT [1]: 36.6 IU/L
AST [1]: 61.4 IU/L
BUN [1]: 10.8 mg/dL
CRE [1]: 0.4 mg/dL
Ca [1]: 10.4 mg/dL
Cl [1]: 102.2 meq/L
DBIL [1]: 0.064 mg/dL
GLC [1]: 198.2 mg/dL
IP [1]: 9.6 mg/dL
K [1]: 3.7 meq/L
LDH [1]: 147.2 IU/L
Na [1]: 140.6 meq/L
PL [1]: 140 mg/dL
RALB [1]: 3.3 g/dL
TBIL [1]: 0.1 mg/dL
TC [1]: 71.2 mg/dL
TG [1]: 59.6 mg/dL
TP [1]: 5.4 g/dL
gamma-GTP [1]: 1 IU/L
TERMINAL_BW [2]: 209.1 g
APTT [2]: 18.9 s
Bas [2]: 0%
Eos [2]: 1%
Fbg [2]: 230.2 mg/dL
Hb [2]: 13.2 g/dL
Ht [2]: 39%
Lym [2]: 76.2%
MCH [2]: 21.4 pg
MCHC [2]: 34%
MCV [2]: 63.1 fL
Mono [2]: 3%
Neu [2]: 19%
PT [2]: 12.6 s
Plat [2]: 115.4 x10_4/uL
RBC [2]: 618.8 x10_4/ul
Ret [2]: 7.4%
WBC [2]: 81.1 x10_2/uL
KIDNEY_L [2]: 1 g
KIDNEY_R [2]: 0.9 g
KIDNEY_TOTAL [2]: 1.9 g
LIVER [2]: 9.8 g
A/G [2]: 1.5
ALP [2]: 961.6 IU/L
ALT [2]: 33.8 IU/L
AST [2]: 68.8 IU/L
BUN [2]: 11.4 mg/dL
CRE [2]: 0.4 mg/dL
Ca [2]: 10.8 mg/dL
Cl [2]: 102.2 meq/L
DBIL [2]: 0.072 mg/dL
GLC [2]: 190 mg/dL
IP [2]: 9.5 mg/dL
K [2]: 4 meq/L
LDH [2]: 191.4 IU/L
Na [2]: 140.8 meq/L
PL [2]: 164.4 mg/dL
RALB [2]: 3.4 g/dL
TBIL [2]: 0.1 mg/dL
TC [2]: 88.6 mg/dL
TG [2]: 79.8 mg/dL
TP [2]: 5.7 g/dL
gamma-GTP [2]: 1 IU/L
TERMINAL_BW [3]: 206.7 g
APTT [3]: 19.2 s
Bas [3]: 0%
Eos [3]: 1%
Fbg [3]: 233.2 mg/dL
Hb [3]: 13 g/dL
Ht [3]: 38.1%
Lym [3]: 72.8%
MCH [3]: 21.6 pg
MCHC [3]: 34.1%
MCV [3]: 63.2 fL
Mono [3]: 2.6%
Neu [3]: 22.6%
PT [3]: 12.7 s
Plat [3]: 118.9 x10_4/uL
RBC [3]: 603 x10_4/ul
Ret [3]: 7.5%
WBC [3]: 81.5 x10_2/uL
KIDNEY_L [3]: 0.9 g
KIDNEY_R [3]: 0.9 g
KIDNEY_TOTAL [3]: 1.8 g
LIVER [3]: 8.6 g
A/G [3]: 1.5
ALP [3]: 961.6 IU/L
ALT [3]: 32.4 IU/L
AST [3]: 65.2 IU/L
BUN [3]: 8.8 mg/dL
CRE [3]: 0.3 mg/dL
Ca [3]: 10.5 mg/dL
Cl [3]: 103.2 meq/L
DBIL [3]: 0.064 mg/dL
GLC [3]: 198.6 mg/dL
IP [3]: 9.3 mg/dL
K [3]: 3.5 meq/L
LDH [3]: 183 IU/L
Na [3]: 140.8 meq/L
PL [3]: 149.2 mg/dL
RALB [3]: 3.3 g/dL
TBIL [3]: 0.1 mg/dL
TC [3]: 83.2 mg/dL
TG [3]: 44.2 mg/dL
TP [3]: 5.5 g/dL
gamma-GTP [3]: 1.2 IU/L
TERMINAL_BW [4]: 224.2 g
APTT [4]: 17.4 s
Bas [4]: 0%
Eos [4]: 0.8%
Fbg [4]: 233 mg/dL
Hb [4]: 12.8 g/dL
Ht [4]: 37.6%
Lym [4]: 75%
MCH [4]: 21.2 pg
MCHC [4]: 34.2%
MCV [4]: 62.1 fL
Mono [4]: 2.6%
Neu [4]: 19.8%
PT [4]: 12.4 s
Plat [4]: 122 x10_4/uL
RBC [4]: 605.8 x10_4/ul
Ret [4]: 6.5%
WBC [4]: 104.1 x10_2/uL
KIDNEY_L [4]: 1 g
KIDNEY_R [4]: 1 g
KIDNEY_TOTAL [4]: 1.9 g
LIVER [4]: 10.6 g
A/G [4]: 1.4
ALP [4]: 992.4 IU/L
ALT [4]: 40 IU/L
AST [4]: 62.8 IU/L
BUN [4]: 13.8 mg/dL
CRE [4]: 0.4 mg/dL
Ca [4]: 10.9 mg/dL
Cl [4]: 101.8 meq/L
DBIL [4]: 0.088 mg/dL
GLC [4]: 187.2 mg/dL
IP [4]: 7.2 mg/dL
K [4]: 3.9 meq/L
LDH [4]: 224 IU/L
Na [4]: 140.6 meq/L
PL [4]: 163.6 mg/dL
RALB [4]: 3.3 g/dL
TBIL [4]: 0.1 mg/dL
TC [4]: 86.8 mg/dL
TG [4]: 85.6 mg/dL
TP [4]: 5.6 g/dL
gamma-GTP [4]: 1.2 IU/L
TERMINAL_BW [5]: 210.6 g
APTT [5]: 19.5 s
Bas [5]: 0%
Eos [5]: 1%
Fbg [5]: 221.8 mg/dL
Hb [5]: 13.4 g/dL
Ht [5]: 39.6%
Lym [5]: 72.2%
MCH [5]: 21.2 pg
MCHC [5]: 33.9%
MCV [5]: 62.4 fL
Mono [5]: 2.8%
Neu [5]: 23.2%
PT [5]: 12.7 s
Plat [5]: 116.4 x10_4/uL
RBC [5]: 633.8 x10_4/ul
Ret [5]: 7%
WBC [5]: 94.9 x10_2/uL
KIDNEY_L [5]: 1 g
KIDNEY_R [5]: 1 g
KIDNEY_TOTAL [5]: 1.9 g
LIVER [5]: 9.7 g
A/G [5]: 1.5
ALP [5]: 1059.6 IU/L
ALT [5]: 39.4 IU/L
AST [5]: 67.8 IU/L
BUN [5]: 11.4 mg/dL
CRE [5]: 0.4 mg/dL
Ca [5]: 10.7 mg/dL
Cl [5]: 102.4 meq/L
DBIL [5]: 0.064 mg/dL
GLC [5]: 196.6 mg/dL
IP [5]: 9.4 mg/dL
K [5]: 4 meq/L
LDH [5]: 203.6 IU/L
Na [5]: 139.6 meq/L
PL [5]: 139.4 mg/dL
RALB [5]: 3.4 g/dL
TBIL [5]: 0.1 mg/dL
TC [5]: 76 mg/dL
TG [5]: 46.2 mg/dL
TP [5]: 5.6 g/dL
gamma-GTP [5]: 1 IU/L
TERMINAL_BW [6]: 208.9 g
APTT [6]: 18.8 s
Bas [6]: 0%
Eos [6]: 0.8%
Fbg [6]: 226 mg/dL
Hb [6]: 13.1 g/dL
Ht [6]: 38.3%
Lym [6]: 76.4%
MCH [6]: 21.3 pg
MCHC [6]: 34.2%
MCV [6]: 62.2 fL
Mono [6]: 2.2%
Neu [6]: 19.2%
PT [6]: 12.7 s
Plat [6]: 120.4 x10_4/uL
RBC [6]: 616.4 x10_4/ul
Ret [6]: 7.3%
WBC [6]: 73.5 x10_2/uL
KIDNEY_L [6]: 0.9 g
KIDNEY_R [6]: 1 g
KIDNEY_TOTAL [6]: 1.9 g
LIVER [6]: 9 g
A/G [6]: 1.5
ALP [6]: 928.2 IU/L
ALT [6]: 31.4 IU/L
AST [6]: 66.4 IU/L
BUN [6]: 8.4 mg/dL
CRE [6]: 0.4 mg/dL
Ca [6]: 10.5 mg/dL
Cl [6]: 103.2 meq/L
DBIL [6]: 0.066 mg/dL
GLC [6]: 190.8 mg/dL
IP [6]: 9.4 mg/dL
K [6]: 4 meq/L
LDH [6]: 207.8 IU/L
Na [6]: 141.4 meq/L
PL [6]: 144 mg/dL
RALB [6]: 3.4 g/dL
TBIL [6]: 0.1 mg/dL
TC [6]: 75.4 mg/dL
TG [6]: 59 mg/dL
TP [6]: 5.6 g/dL
gamma-GTP [6]: 1 IU/L
TERMINAL_BW [7]: 206.9 g
APTT [7]: 18.8 s
Bas [7]: 0%
Eos [7]: 0.8%
Fbg [7]: 222.2 mg/dL
Hb [7]: 13.2 g/dL
Ht [7]: 38.4%
Lym [7]: 72.2%
MCH [7]: 21.9 pg
MCHC [7]: 34.4%
MCV [7]: 63.7 fL
Mono [7]: 1.2%
Neu [7]: 25.2%
PT [7]: 12.8 s
Plat [7]: 110.1 x10_4/uL
RBC [7]: 603.4 x10_4/ul
Ret [7]: 7.2%
WBC [7]: 68.2 x10_2/uL
KIDNEY_L [7]: 0.9 g
KIDNEY_R [7]: 1 g
KIDNEY_TOTAL [7]: 1.9 g
LIVER [7]: 8 g
A/G [7]: 1.5
ALP [7]: 772.2 IU/L
ALT [7]: 31.4 IU/L
AST [7]: 67.4 IU/L
BUN [7]: 8.6 mg/dL
CRE [7]: 0.4 mg/dL
Ca [7]: 10.4 mg/dL
Cl [7]: 103.2 meq/L
DBIL [7]: 0.06 mg/dL
GLC [7]: 210.6 mg/dL
IP [7]: 8.6 mg/dL
K [7]: 3.5 meq/L
LDH [7]: 195.4 IU/L
Na [7]: 141.4 meq/L
PL [7]: 137.2 mg/dL
RALB [7]: 3.5 g/dL
TBIL [7]: 0.1 mg/dL
TC [7]: 72.6 mg/dL
TG [7]: 23 mg/dL
TP [7]: 5.8 g/dL
gamma-GTP [7]: 1.4 IU/L
TERMINAL_BW [8]: 214 g
APTT [8]: 17.5 s
Bas [8]: 0%
Eos [8]: 0.8%
Fbg [8]: 216.2 mg/dL
Hb [8]: 13.5 g/dL
Ht [8]: 39.4%
Lym [8]: 82.6%
MCH [8]: 21.7 pg
MCHC [8]: 34.4%
MCV [8]: 63 fL
Mono [8]: 2.4%
Neu [8]: 13%
PT [8]: 13.2 s
Plat [8]: 135.4 x10_4/uL
RBC [8]: 624 x10_4/ul
Ret [8]: 6.2%
WBC [8]: 85.9 x10_2/uL
KIDNEY_L [8]: 1 g
KIDNEY_R [8]: 1 g
KIDNEY_TOTAL [8]: 1.9 g
LIVER [8]: 8.6 g
A/G [8]: 1.5
ALP [8]: 925.2 IU/L
ALT [8]: 40.6 IU/L
AST [8]: 69.8 IU/L
BUN [8]: 13.8 mg/dL
CRE [8]: 0.4 mg/dL
Ca [8]: 10.7 mg/dL
Cl [8]: 100.6 meq/L
DBIL [8]: 0.076 mg/dL
GLC [8]: 191 mg/dL
IP [8]: 8.8 mg/dL
K [8]: 3.8 meq/L
LDH [8]: 232 IU/L
Na [8]: 139.6 meq/L
PL [8]: 142.4 mg/dL
RALB [8]: 3.4 g/dL
TBIL [8]: 0.1 mg/dL
TC [8]: 79.8 mg/dL
TG [8]: 52.8 mg/dL
TP [8]: 5.7 g/dL
gamma-GTP [8]: 1 IU/L
